Assay results published in patent US11787826B2, “Hydrocarbyl tin complex of alkynyl phosphonic acid with antitumor activity and application thereof” (priority 2020, dated 2023).
Like-named read-outs stand apart in the source and are kept apart here.

Key:
Format in all cases: cell-based
[1] = system: A549 (human lung cancer cells)
Method: (§1) MCF-7, HT-29, A549 and HepG2 cells are got from American Tissue Culture Collection, which are cultured with the culture medium containing 10% bovine fetal serum in a CO2-containing incubator at 37° C. MTT method is used to detect cell proliferation and growth inhibition. The number of experimental cells is adjusted to obtain the absorbance at 570 nm. 6 concentrations are set for the compound test solution (0.1 nmol/L˜10 μmol/L). The cells are treated for 72 hours. At least 3 parallel experiments and 3 repeated experiments are conducted for each concentration. The IC50 value is determined by statistical analysis.
(§2) Taking cisplatin as the contrast, the in vitro growth inhibitory activity of Compound 1 and Compound 2 on tumor cells are tested, including MCF7 (human breast cancer cells), HT-29 (human colon cancer cells), A549 (human lung cancer cells) and HepG2 (liver cancer cells).

[2] = system: HT-29 (human colon cancer cells)
Method: as §1, §2

[3] = system: HepG2 (liver cancer cells)
Method: as §1, §2

[4] = system: MCF7 (human breast cancer cells)
Method: as §1, §2

[5] = A549 cells, MTT, 72 hours treatment
[6] = HT-29 cells, MTT, 72 hours treatment
[7] = HepG2 cells, MTT, 72 hours treatment
[8] = MCF7 cells, MTT, 72 hours treatment

| Compound | IC50 [1, 5] | IC50 [2, 6] | IC50 [3, 7] | IC50 [4, 8] | IC50 [1] | IC50 [2] | IC50 [3] | IC50 [4] |
| --- | --- | --- | --- | --- | --- | --- | --- | --- |
| Tri-n-butyltin (IV) (3,5-dimethylphenyl) Acetylenyl Phosphonic Acid Derivatives [Compound 1] | 33 nM | 635 nM | 211 nM | 194 nM |  |  |  |  |
| N.N.[Cl][Pt][Cl] [Cisplatin, cisplatin, reference compound] | 1300 nM | 35000 nM | 17000 nM | 43000 nM |  |  |  |  |
| tri-n-butyltin (IV) (3-Trifluoromethyl Phenyl) acetylenyl phosphonic acid derivatives [Compound 2] |  |  |  |  | 274 nM | 962 nM | 872 nM | 1730 nM |
